Entries after “also recorded” stand apart in the source; their conditions may differ.
Experiments:
Assay type in all cases: physicochemical
[1] = Photostability / solid stability under light (5000 lux)
Procedure: Photostability testing was conducted on Polymorph Form A at 1- and 2-week intervals under light conditions of 5000 lux with the sample held at room temperature. The samples were tested for appearance, purity (HPLC), total related substances (TRS), and XRPD. The only change observed in the photostability samples was a decrease in purity of 0.6% at the 1-week interval.
About 3 mg Polymorph Form A was weighed in glass vials and samples stored under light condition (5000 lx) for 1 week and 2 weeks, separately. Another 20 mg testing compound was weighed in glass vials and the samples stored under light condition for 1 week and 2 weeks, separately. The original compound was stored at −20° C. as the control. The physical appearance, assay, total related substances (TRS) and XRPD pattern were checked at the end of the 1st week and the 2nd week.

[2] = pKa measurement (Sirius T3, pH-metric and UV-metric); settings: pH-metric (MeOH, DMSO, Dioxane co-solvent) and UV-metric (DMSO) methods, pH 1.0 to pH 11.0
Procedure: There are two methods available on the Sirius T3 for pKa measurement: potentiometric titration and spectroscopic (UV) titration.
Potentiometric Titration Method is a method which works for any ionicable compound and its standard working range is pH 3.0 to pH 11.0. […] Where this cannot be achieved, the use of organic co-solvents to enhance the solubility is employed.
Its available pH range is typically between 0.5 and 13.5. A compound concentration of 50 μM is typically used, i.e., ten fold lower than the pH-metric method. Co-solvent determination may also be performed when the assayed compounds remain insoluble under all other conditions.
When co-solvent solutions had been employed by pH-metric method or UV-metric method, the psKa values are extrapolated to zero percent organic content using the Yasuda-Shedlovsky extrapolation procedure, which yields extrapolated aqueous pKa values and slope information which can be used to ascertain the acidic/basic characteristics of the ionisable groups.
About 1 mg of Polymorph Form A was weighed into a sample vial, about 1.5 mL of co-solvent (60v % DMSO, 80v % MeOH or 60v % Dioxane) was added into the vial manually, then titrated with acid or base to obtain a psKa value with co-solvent and water, and extrapolated to get aqueous pKa value. Tables 7-9 below and FIGS. 7A-9B provide the results of pKa determination by pH metric method. […]

[3] = Intrinsic dissolution rate (IDR); settings: for Detection in dissolution medium (IDR test): total 120 min
Procedure: Testing media: water, 0.1N HCl, pH 6.8 USP buffer
About 200 mg Polymorph Form A was weighed into the intrinsic dissolution apparatus (diameter: 0.795 cm) and compressed for 1 minute with 1 ton compression force to make the material compact. The intrinsic dissolution apparatus was slid into the dissolution test chuck and tightened. The shaft in the spindle was adjusted to ensure the exposed surface of the compacted tablet was 3.8 cm from the bottom of the vessel when lowered. The temperature of chamber water was set at 37° C., the shaft rotation at 100 rpm, and the sampling time points at 2, 5, 10, 15, 20, 30, 45, 60, 90 and 120 min. 5 mL of solution was sampled at each time point, and the samples filtered with 0.45 μm filter. The concentration of the filtrates was analyzed by HPLC.

[4] = Hygroscopicity (DVS) of Polymorph Form A
Procedure: Details of DVS method used in the tests are summarized below: • Test the sorption/desorption profile of testing compound at 25° C. under 0-90% relative humidity. 3.3 HPLC Method
About 10 mg Polymorph Form A was weighed and the sorption/desorption profiles were set at 25° C. under 0-90% relative humidity. The compound after testing was also subjected to an XRPD test to determine if any polymorph changes exist after exposure to a cycle of humidity change.

[5] = 5000 Lux, open container, 0 weeks
[6] = 5000 Lux, open container, 1 week
[7] = 5000 Lux, open container, 2 weeks
[8] = 25° C., Cycle 1, target 0.0 % P/Po
[9] = 25° C., Cycle 1, target 10.0 % P/Po
[10] = 25° C., Cycle 1, target 20.0 % P/Po
[11] = 25° C., Cycle 1, target 30.0 % P/Po
[12] = 25° C., Cycle 1, target 40.0 % P/Po
[13] = 25° C., Cycle 1, target 50.0 % P/Po
[14] = 25° C., Cycle 1, target 60.0 % P/Po
[15] = 25° C., Cycle 1, target 70.0 % P/Po
[16] = 25° C., Cycle 1, target 80.0 % P/Po
[17] = 25° C., Cycle 1, target 90.0 % P/Po

- Appearance [1, 5]: White powder
- Purity (area %) [1, 5]: 99.8 area %
- Total related substances (area %, w/w) [1, 5]: 0.25 area %, w/w
- Appearance [1, 6]: White powder
- Purity (area %) [1, 6]: 99.2 area %
- Total related substances (area %, w/w) [1, 6]: 0.25 area %, w/w
- XRPD [1, 6]: Same form
- Appearance [1, 7]: White powder
- Purity (area %) [1, 7]: 99.2 area %
- Total related substances (area %, w/w) [1, 7]: 0.25 area %, w/w
- XRPD [1, 7]: Same form
- decrease in purity ([1]; 5000 lux, room temperature, 1-week interval): 0.6%
- Appearance ([1]; light (5000 lx), 1 week): white powder
- TRS % ([1]; light (5000 lx), 1 week): 0.25%
- XRPD pattern ([1]; light (5000 lx), 1 week): Form A
- Appearance ([1]; light (5000 lx), 2 weeks): white powder
- TRS % ([1]; light (5000 lx), 2 weeks): 0.25%
- XRPD pattern ([1]; light (5000 lx), 2 weeks): Form A
- Appearance ([1]; −20° C., 0 day (control)): white powder
- TRS % ([1]; −20° C., 0 day (control)): 0.25%
- XRPD pattern ([1]; −20° C., 0 day (control)): Form A
- pKa [2]: could not be detected
- Detection in dissolution medium (IDR test) ([3]; 0.1N HCl): could not be detected
- Intrinsic dissolution rate (mg/cm^2/min) ([3]; Water, 37° C., 100 rpm, from data of 10, 15 and 20 min): 0.9681 mg/cm^2/min
- Detection in dissolution medium (IDR test) ([3]; pH 6.8 USP buffer): could not be detected
- Concentration in dissolution medium (IDR test) ([3]; water, within 5 min, not detected, LOQ): < 305.1 ng/mL
- Change in Mass (%)-ref, Desorption [4, 8]: 0.20%
- Change in Mass (%)-ref, Sorption [4, 8]: 0.00%
- Change in Mass (%)-ref, Desorption [4, 9]: 1.64%
- Change in Mass (%)-ref, Hysteresis [4, 9]: 0.29%
- Change in Mass (%)-ref, Sorption [4, 9]: 1.35%
- Change in Mass (%)-ref, Desorption [4, 10]: 2.73%
- Change in Mass (%)-ref, Hysteresis [4, 10]: 0.39%
- Change in Mass (%)-ref, Sorption [4, 10]: 2.34%
- Change in Mass (%)-ref, Desorption [4, 11]: 4.08%
- Change in Mass (%)-ref, Hysteresis [4, 11]: 0.50%
- Change in Mass (%)-ref, Sorption [4, 11]: 3.58%
- Change in Mass (%)-ref, Desorption [4, 12]: 5.48%
- Change in Mass (%)-ref, Hysteresis [4, 12]: 0.63%
- Change in Mass (%)-ref, Sorption [4, 12]: 4.85%
- Change in Mass (%)-ref, Desorption [4, 13]: 6.98%
- Change in Mass (%)-ref, Hysteresis [4, 13]: 0.87%
- Change in Mass (%)-ref, Sorption [4, 13]: 6.11%
- Change in Mass (%)-ref, Desorption [4, 14]: 8.08%
- Change in Mass (%)-ref, Hysteresis [4, 14]: 0.39%
- Change in Mass (%)-ref, Sorption [4, 14]: 7.69%
- Change in Mass (%)-ref, Desorption [4, 15]: 13.12%
- Change in Mass (%)-ref, Hysteresis [4, 15]: 3.90%
- Change in Mass (%)-ref, Sorption [4, 15]: 9.21%
- Change in Mass (%)-ref, Desorption [4, 16]: 16.12%
- Change in Mass (%)-ref, Hysteresis [4, 16]: 1.04%
- Change in Mass (%)-ref, Sorption [4, 16]: 15.09%
- Change in Mass (%)-ref, Desorption [4, 17]: 20.08%
- Change in Mass (%)-ref, Sorption [4, 17]: 20.08%
- Hygroscopicity classification ([4]; DVS, 0 to 90% RH, 25° C.): very hygroscopic
- XRPD after hygroscopicity test ([4]; after a cycle of humidity change): no change
- weight gain ([4]; from 0 to 90% RH, 25° C.): 20.08%
SMILES: Cc1cc(C)c(-c2ccc(NC(=O)[C@H](Cc3ccc(C(=O)NCCS(=O)(=O)[O-])cc3)c3ccc(-c4ccc(C(C)(C)C)cc4)cc3)cc2)c(C)c1.[Na+] [Polymorph Form A, Sodium (R)-2-(4-(2-(4′-(tert-butyl)-[1,1′-biphenyl]-4-yl)-3-oxo-3-((2′,4′,6′-trimethyl-[1,1′-biphenyl]-4-yl)amino)propyl)benzamido)ethane-1-sulfonate]
- stability under light condition (overall) ([1]; 5000 lux, 2 weeks): No significant changes; also recorded: No significant increase in TRS % or decrease in recovery %; also recorded: relatively stable

From patent US12208071B2, “Glucagon receptor antagonists” (LIGAND PHARMACEUTICALS INCORPORATED, priority 2018, dated 2025)
